Assay results as given in patent publication US10792289B2 (Horizon Orphan LLC, priority 2009, dated 2020).

System: stable CF patients
Assay: Phase 2 study: CFQ-R questionnaire
Format: in vivo, human
Settings: for CFQ-R respiratory, mean change from baseline: MITT, Baseline to Day 28
Method: The following dosage regimens (as nebulizer loaded doses) were evaluated: 120 mg QD (daily); 240 mg QD (daily); and 240 mg BID (twice daily).
Patients were assessed on Day 1, 7, 14, and 28, and then up to 28 days after completion of study drug, namely, Days 42 and 56. The end of the study was defined as the last visit of the last patient.
Efficacy was evaluated by microbiologic assessment of sputum samples, time to need for anti-pseudomonal antimicrobials, the Cystic Fibrosis Questionaire-Revised (CFQ-R), and pulmonary function tests. […] Pair-wise comparisons between all the treatment arms were conducted as secondary analyses.
Patients completed the CFQ-R questionnaire with domains that included: respiratory, body image, digestion, eating, emotion, health perception, physical, role/school, social, treatment burden, vitality, and weight.

[1] = MITT population, 240 mg BID vs Placebo, baseline to visit 4
[2] = MITT population, 240 mg BID, baseline to visit 4
[3] = MITT population, Combined 240 mg QD and BID

Q: Which “Respiratory domain of CFQ-R, Day 28, Median” value (MITT population, 120 mg QD) does the source give for `C[C@H]1COc2c(N3CCN(C)CC3)c(F)cc3c(=O)c(C(=O)O)cn1c23` [Levofloxacin, levofloxacin] here?
A: 66.7

Q: And the “Respiratory domain of CFQ-R, Change from Baseline to Day 14, Mean” value (MITT population, 240 mg BID)?
A: 7.5

Q: What about the “Respiratory domain of CFQ-R, Change from Baseline to Day 14, Median” value (MITT population, 240 mg BID) of the same compound?
A: 5.6

Q: And the “Respiratory domain of CFQ-R, Change from Baseline to Day 28, Mean” value (MITT population, 240 mg BID)?
A: 3.0

Q: What about the “Respiratory domain of CFQ-R, Change from Baseline to Day 28, Median” value (MITT population, 240 mg BID) of the same compound?
A: 0.0

Q: What about the “Respiratory domain of CFQ-R, Day 1, Mean” value (MITT population, 240 mg BID) of the same compound?
A: 60.5

Q: And the “Respiratory domain of CFQ-R, Day 1, Median” value (MITT population, 240 mg BID)?
A: 61.1

Q: And the “Respiratory domain of CFQ-R, Day 14, Mean” value (MITT population, 240 mg BID)?
A: 68.4

Q: What about the “Respiratory domain of CFQ-R, Day 14, Median” value (MITT population, 240 mg BID) of the same compound?
A: 72.2

Q: And the “Respiratory domain of CFQ-R, Day 28, Mean” value (MITT population, 240 mg BID)?
A: 64.4

Q: And the “Respiratory domain of CFQ-R, Day 28, Median” value (MITT population, 240 mg BID)?
A: 72.2

Q: What about the “CFQ-R Body Image, LS Mean Difference” value [1] of the same compound?
A: −0.25

Q: What about the “CFQ-R Digestion, LS Mean Difference” value [1] of the same compound?
A: 2.46

Q: What about the “CFQ-R Eating, LS Mean Difference” value [1] of the same compound?
A: 5.70

Q: What about the “CFQ-R Emotion, LS Mean Difference” value [1] of the same compound?
A: −0.09

Q: And the “CFQ-R Health Perception, LS Mean Difference” value [1]?
A: 2.58

Q: And the “CFQ-R Physical, LS Mean Difference” value [1]?
A: 5.94

Q: And the “CFQ-R Respiratory, LS Mean Difference” value [1]?
A: 4.50

Q: And the “CFQ-R Role/School, LS Mean Difference” value [1]?
A: −0.53

Q: What about the “CFQ-R Social, LS Mean Difference” value [1] of the same compound?
A: 2.37

Q: What about the “CFQ-R Treatment Burden, LS Mean Difference” value [1] of the same compound?
A: 0.06

Q: And the “CFQ-R Vitality, LS Mean Difference” value [1]?
A: 3.11

Q: What about the “CFQ-R Weight, LS Mean Difference” value [1] of the same compound?
A: 5.4

Q: What about the “CFQ-R Body Image, LS Mean Change from Baseline” value [2] of the same compound?
A: 0.34

Q: And the “CFQ-R Digestion, LS Mean Change from Baseline” value [2]?
A: 1.11

Q: What about the “CFQ-R Eating, LS Mean Change from Baseline” value [2] of the same compound?
A: 2.41

Q: What about the “CFQ-R Emotion, LS Mean Change from Baseline” value [2] of the same compound?
A: 2.22

Q: What about the “CFQ-R Health Perception, LS Mean Change from Baseline” value [2] of the same compound?
A: 0.52

Q: And the “CFQ-R Physical, LS Mean Change from Baseline” value [2]?
A: 3.14

Q: And the “CFQ-R Respiratory, LS Mean Change from Baseline” value [2]?
A: 4.06

Q: And the “CFQ-R Role/School, LS Mean Change from Baseline” value [2]?
A: −1.94

Q: What about the “CFQ-R Social, LS Mean Change from Baseline” value [2] of the same compound?
A: 0.69

Q: What about the “CFQ-R Treatment Burden, LS Mean Change from Baseline” value [2] of the same compound?
A: −0.93

Q: And the “CFQ-R Vitality, LS Mean Change from Baseline” value [2]?
A: 1.23

Q: And the “CFQ-R Weight, LS Mean Change from Baseline” value [2]?
A: 10.06

Q: What about the “Respiratory domain of CFQ-R, Change from Baseline to Day 14, Mean” value (MITT population, 240 mg QD) of the same compound?
A: 1.4

Q: What about the “Respiratory domain of CFQ-R, Change from Baseline to Day 14, Median” value (MITT population, 240 mg QD) of the same compound?
A: 0.0

Q: What about the “Respiratory domain of CFQ-R, Change from Baseline to Day 28, Mean” value (MITT population, 240 mg QD) of the same compound?
A: 0.3

Q: What about the “Respiratory domain of CFQ-R, Change from Baseline to Day 28, Median” value (MITT population, 240 mg QD) of the same compound?
A: 0.0

Q: And the “Respiratory domain of CFQ-R, Day 1, Mean” value (MITT population, 240 mg QD)?
A: 61.3

Q: And the “Respiratory domain of CFQ-R, Day 1, Median” value (MITT population, 240 mg QD)?
A: 61.1

Q: What about the “Respiratory domain of CFQ-R, Day 14, Mean” value (MITT population, 240 mg QD) of the same compound?
A: 63.0

Q: And the “Respiratory domain of CFQ-R, Day 14, Median” value (MITT population, 240 mg QD)?
A: 66.7

Q: And the “Respiratory domain of CFQ-R, Day 28, Mean” value (MITT population, 240 mg QD)?
A: 61.6

Q: And the “Respiratory domain of CFQ-R, Day 28, Median” value (MITT population, 240 mg QD)?
A: 66.7

Q: And the “Respiratory domain of CFQ-R, Change from Baseline to Day 14, Mean” value [3]?
A: 4.5

Q: And the “Respiratory domain of CFQ-R, Change from Baseline to Day 14, Median” value [3]?
A: 5.5

Q: What about the “Respiratory domain of CFQ-R, Change from Baseline to Day 28, Mean” value [3] of the same compound?
A: 1.7

Q: What about the “Respiratory domain of CFQ-R, Change from Baseline to Day 28, Median” value [3] of the same compound?
A: 0.0

Q: And the “Respiratory domain of CFQ-R, Day 1, Mean” value [3]?
A: 60.9

Q: What about the “Respiratory domain of CFQ-R, Day 1, Median” value [3] of the same compound?
A: 61.1

Q: And the “Respiratory domain of CFQ-R, Day 14, Mean” value [3]?
A: 65.8

Q: And the “Respiratory domain of CFQ-R, Day 14, Median” value [3]?
A: 69.4

Q: What about the “Respiratory domain of CFQ-R, Day 28, Mean” value [3] of the same compound?
A: 63.0

Q: What about the “Respiratory domain of CFQ-R, Day 28, Median” value [3] of the same compound?
A: 66.7

Q: And the “CFQ-R respiratory, mean change from baseline” value (shortened to “CFQ-R respiratory, mean change”) (120 mg QD)?
A: 0.3 units

Q: What about the “CFQ-R respiratory, mean change” value (240 mg BID) of the same compound?
A: 1.7 units

Q: And the “CFQ-R respiratory, mean change” value (240 mg QD)?
A: 3.0 units
